US20140296212A1, “SUBSTITUTED PHENOXYPROPYLCYCLOAMINE DERIVATIVES AS HISTAMINE-3 (H3) RECEPTOR LIGANDS” (CEPHALON, INC., priority 2009, published 2014)
pKi: −log10 of the molar value.

Columns and labels:
[1] = molecular target: T1, human H3 receptor (Homo sapiens, UniProt Q9Y5N1); assay: Human H3 radioligand binding ([3H]-N-alpha-methylhistamine, SPA); details: membranes of CHO cells expressing human H3
T1 construct: expressed in transfected cells
Summary of the method: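 Membranes from H3-expressing cells (10 μg protein/well) in 50 mM Tris HCl pH 7.4, 5 mM MgCl2, 0.1% BSA with ~1 nM [3H]-N-alpha-methylhistamine and compound (0.01 nM–30 μM), SPA beads, 4 h, room temperature, dark. Non-specific binding defined with 10 μM clobenpropit; bound radioligand read by scintillation counting.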

[2] = molecular target: T2, rat histamine H3 receptor (Rattus norvegicus, UniProt Q9QYN8); assay: Rat H3 radioligand binding ([3H]-N-alpha-methylhistamine, SPA); details: membranes of CHO-A3 cells expressing rat H3; [3H]-N-alpha-methylhistamine; read-out: Rat H3 Ki
T2 construct: encoding the entire 445-amino-acid rat histamine H3 receptor; expressed in transfected cells
T2 sequence (Q9QYN8 whole entry): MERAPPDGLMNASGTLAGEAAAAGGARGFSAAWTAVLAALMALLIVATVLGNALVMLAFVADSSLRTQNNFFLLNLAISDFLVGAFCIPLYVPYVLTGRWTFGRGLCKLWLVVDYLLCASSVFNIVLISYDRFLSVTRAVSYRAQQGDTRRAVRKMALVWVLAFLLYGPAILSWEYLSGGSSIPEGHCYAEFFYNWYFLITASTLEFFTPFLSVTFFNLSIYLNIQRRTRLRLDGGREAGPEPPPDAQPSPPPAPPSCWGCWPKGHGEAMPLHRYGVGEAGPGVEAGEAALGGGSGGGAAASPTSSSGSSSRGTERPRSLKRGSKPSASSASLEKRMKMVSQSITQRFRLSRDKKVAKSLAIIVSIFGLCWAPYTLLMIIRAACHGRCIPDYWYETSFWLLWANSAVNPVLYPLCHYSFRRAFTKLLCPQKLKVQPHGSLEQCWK
Summary of the method: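 Membranes from CHO-A3 cells stably expressing full-length rat H3 receptor (445 aa) incubated with ~1 nM [3H]-N-alpha-methylhistamine and compound (0.01 nM–30 μM) in 50 mM Tris HCl pH 7.4, 5 mM MgCl2, 0.1% BSA, 4 h, room temperature; SPA bead read-out. Non-specific binding defined with 10 μM clobenpropit.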

T1 sequence (Q9Y5N1 whole entry): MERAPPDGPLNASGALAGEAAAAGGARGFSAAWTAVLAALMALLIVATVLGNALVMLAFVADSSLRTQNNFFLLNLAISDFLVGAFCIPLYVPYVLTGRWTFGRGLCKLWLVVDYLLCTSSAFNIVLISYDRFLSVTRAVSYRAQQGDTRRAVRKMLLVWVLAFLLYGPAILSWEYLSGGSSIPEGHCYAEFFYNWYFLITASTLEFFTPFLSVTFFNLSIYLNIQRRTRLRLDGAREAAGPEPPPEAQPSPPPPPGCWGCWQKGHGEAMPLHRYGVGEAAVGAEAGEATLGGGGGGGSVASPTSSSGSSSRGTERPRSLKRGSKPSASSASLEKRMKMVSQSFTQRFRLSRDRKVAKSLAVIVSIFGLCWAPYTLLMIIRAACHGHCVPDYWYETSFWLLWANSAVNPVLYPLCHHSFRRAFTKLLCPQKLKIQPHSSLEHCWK

| Compound | pKi [1] | pKi [2] | melting point |
| --- | --- | --- | --- |
| COC(=O)N1CCN(CC(=O)c2ccc(OCCCN3CCC[C@H]3C)cc2)CC1 [Example 82, 4-(2-{4-[3-((R)-2-Methyl-pyrrolidin-1-yl)-propoxy]-phenyl}-2-oxo-ethyl)-piperazine-1-carboxylic acid methyl ester] | 7.00 to 10.00 | 7.00 to 10.00 | 208 to 210 °C |
| C[C@@H]1CCCN1CCCOc1c(Cl)cc(C(=O)CN2CCN(C(=O)c3ccccc3)CC2)cc1Cl [Example 96, 2-(4-Benzoyl-piperazin-1-yl)-1-{3,5-dichloro-4-[3-((R)-2-methyl-pyrrolidin-1-yl)-propoxy]-phenyl}-ethanone] | 7.00 to 10.00 | 6.30 to 7.00 | 111 °C |
| O=C(CN1CCOCC1)c1ccc(OCCCN2CCN3CCCCC3C2)cc1 (stereo not drawn) [Example 62, 2-Morpholin-4-yl-1-{4-[3-(octahydro-pyrido[1,2-a]pyrazin-2-yl)-propoxy]-phenyl}-ethanone] | 6.00 to 6.30 | < 6.00 | 251 °C |
| C[C@@H]1CCCN1CCCOc1ccc(C(=O)CN2CCN(C(=O)C3CC3)CC2)cc1 [Example 89, 2-(4-Cyclopropanecarbonyl-piperazin-1-yl)-1-{4-[3-((R)-2-methyl-pyrrolidin-1-yl)-propoxy]-phenyl}-ethanone] | 7.00 to 10.00 | 7.00 to 10.00 | 202 to 204 °C |
| CC(=O)N1CCN(CC(=O)c2ccc(OCCCN3CCC[C@H]3C)cc2)CC1 [Example 63, 2-(4-Acetyl-piperazin-1-yl)-1-{4-[3-((R)-2-methyl-pyrrolidin-1-yl)-propoxy]-phenyl}-ethanone] | 7.00 to 10.00 | 7.00 to 10.00 | 125 to 133 °C |
| C[C@@H]1CCCN1CCCOc1c(Cl)cc(C(=O)CN2CCN(C(=O)C3CCCCC3)CC2)cc1Cl [Example 99, 2-(4-Cyclohexanecarbonyl-piperazin-1-yl)-1-{3,5-dichloro-4-[3-((R)-2-methyl-pyrrolidin-1-yl)-propoxy]-phenyl}-ethanone] | 7.00 to 10.00 | 6.30 to 7.00 | 168 °C |
| C[C@@H]1CCCN1CCCOc1ccc(C(=O)CN2CCN(S(=O)(=O)c3ccccc3)CC2)cc1 [Example 69, 2-(4-Benzenesulfonyl-piperazin-1-yl)-1-{4-[3-((R)-2-methyl-pyrrolidin-1-yl)-propoxy]-phenyl}-ethanone] | 7.00 to 10.00 | 7.00 to 10.00 | 124 to 135 °C |
| CC(=O)N1CCN(CC(=O)c2cc(C)c(OCCCN3CCC[C@H]3C)c(C)c2)CC1 [Example 97, 2-(4-Acetyl-piperazin-1-yl)-1-{3,5-dimethyl-4-[3-((R)-2-methyl-pyrrolidin-1-yl)-propoxy]-phenyl}-ethanone] | 6.30 to 7.00 | 6.00 to 6.30 | 118 to 119 °C |
| C[C@@H]1CCCN1CCCOc1ccc(C(=O)CN2CCN(C(=O)N3CCCC3)CC2)cc1 [Example 75, 1-{4-[3-((R)-2-Methyl-pyrrolidin-1-yl)-propoxy]-phenyl}-2-[4-(pyrrolidine-1-carbonyl)-piperazin-1-yl]-ethanone] | 7.00 to 10.00 | 7.00 to 10.00 | 118 to 130 °C |
| CC1CCC(C)N1CC(=O)c1ccc(OCCCN2CCC[C@H]2C)cc1 (stereo partly drawn) [Example 58, 2-(2,5-Dimethyl-pyrrolidin-1-yl)-1-{4-[3-((R)-2-methyl-pyrrolidin-1-yl)-propoxy]-phenyl}-ethanone] | 7.00 to 10.00 | 7.00 to 10.00 | 100 to 106 °C |
| CC1CCCC(C)N1CC(=O)c1ccc(OCCCN2CCC[C@H]2C)cc1 (stereo partly drawn) [Example 61, 2-(2,6-Dimethyl-piperidin-1-yl)-1-{4-[3-((R)-2-methyl-pyrrolidin-1-yl)-propoxy]-phenyl}-ethanone] | 7.00 to 10.00 | 7.00 to 10.00 | 127 to 135 °C |
| C[C@@H]1CCCN1CCCOc1ccc(C(=O)CN2CCNC(=O)C2)cc1 [Example 85, 4-(2-{4-[3-((R)-2-Methyl-pyrrolidin-1-yl)-propoxy]-phenyl}-2-oxo-ethyl)-piperazin-2-one] | 7.00 to 10.00 | 7.00 to 10.00 | 137 to 145 °C |
| CC(C)N1CCC(Oc2ccc(C(=O)CN3CCCC(F)(F)C3)cc2)CC1 [Example 53, 2-(3,3-Difluoro-piperidin-1-yl)-1-[4-(1-isopropyl-piperidin-4-yloxy)-phenyl]-ethanone] | 7.00 to 10.00 | 6.30 to 7.00 | 160 to 165 °C (dec.) |
| Cc1cc(OCCCN2CCCCC2)ccc1C(=O)CN1CCOCC1 [Example 72, 1-[2-Methyl-4-(3-piperidin-1-yl-propoxy)-phenyl]-2-morpholin-4-yl-ethanone] | 7.00 to 10.00 | 6.30 to 7.00 | 206 to 215 °C |
| O=C(CN1CCOCC1)c1ccc(OCCCN2CCCCC2)cc1F [Example 65, 1-[2-Fluoro-4-(3-piperidin-1-yl-propoxy)-phenyl]-2-morpholin-4-yl-ethanone] | 6.30 to 7.00 | < 6.00 | 170 to 172 °C |

Next, values leading:

| pKi [1] | pKi [2] | melting point | Compound |
| --- | --- | --- | --- |
| 7.00 to 10.00 | 7.00 to 10.00 | 232 °C | C[C@@H]1CCCN1CCCOc1ccc(C(=O)CN2CCN(C(=O)C3CCCCC3)CC2)cc1F [Example 146, 2-(4-Cyclohexanecarbonyl-piperazin-1-yl)-1-{3-fluoro-4-[3-((R)-2-methyl-pyrrolidin-1-yl)-propoxy]-phenyl}-ethanone] |
| 6.30 to 7.00 | < 6.00 | 122 to 135 °C | O=C(CN1CCC(F)(F)CC1)c1ccc(OCCCN2CCCCC2)c(Cl)c1 [Example 147, 1-[3-Chloro-4-(3-piperidin-1-yl-propoxy)-phenyl]-2-(4,4-difluoro-piperidin-1-yl)-ethanone] |
| 6.30 to 7.00 | 6.30 to 7.00 | 115 °C | CC(=O)N1CCN(CC(=O)c2cc(Cl)c(OCCCN3CCC[C@H]3C)c(Cl)c2)CC1 [Example 110, 2-(4-Acetyl-piperazin-1-yl)-1-{3,5-dichloro-4-[3-((R)-2-methyl-pyrrolidin-1-yl)-propoxy]-phenyl}-ethanone] |
| 7.00 to 10.00 | 6.30 to 7.00 | 177 °C | C[C@@H]1CCCN1CCCOc1c(Cl)cc(C(=O)CN2CCN(c3ncccn3)CC2)cc1Cl [Example 111, 1-{3,5-Dichloro-4-[3-((R)-2-methyl-pyrrolidin-1-yl)-propoxy]-phenyl}-2-(4-pyrimidin-2-yl-piperazin-1-yl)-ethanone] |
| 7.00 to 10.00 | 7.00 to 10.00 | 120 to 126 °C | CC(=O)N1CCN(CC(=O)c2ccc(OCCCN3CCC[C@H]3C)c(C)c2)CC1 [Example 156, 2-(4-Acetyl-piperazin-1-yl)-1-{3-methyl-4-[3-((R)-2-methyl-pyrrolidin-1-yl)-propoxy]-phenyl}-ethanone] |
| 7.00 to 10.00 | 7.00 to 10.00 | 100.5 to 109.5 °C | C[C@@H]1CCCN1CCCOc1ccc(C(=O)CN2CCN(C(=O)c3ccc4ccccc4c3)CC2)cc1 [Example 109, 1-{4-(3-((R)-2-Methyl-pyrrolidin-1-yl)-propoxy]-phenyl}-2-[4-(naphthalene-2-carbonyl)-piperazin-1-yl]-ethanone] |
| 7.00 to 10.00 | 7.00 to 10.00 | 113 to 128 °C | CC(=O)N1CCN(CC(=O)c2ccc(OCCCN3CCC[C@H]3C)c(Cl)c2)CC1 [Example 135, 2-(4-Acetyl-piperazin-1-yl)-1-{3-chloro-4-[3-((R)-2-methyl-pyrrolidin-1-yl)-propoxy]-phenyl}-ethanone] |
| 7.00 to 10.00 | 7.00 to 10.00 | 90 to 96 °C | C[C@@H]1CCCN1CCCOc1ccc(C(=O)CN2CCCCc3ccccc32)cc1 [Example 114, 1-{4-[3-((R)-2-Methyl-pyrrolidin-1-yl)-propoxy]-phenyl}-2-(2,3,4,5-tetrahydro-benzo[b]azepin-1-yl)-ethanone] |
| 7.00 to 10.00 | 7.00 to 10.00 | 81 °C | C[C@@H]1CCCN1CCCOc1ccc(C(=O)CN2CCN(C(=O)N(C)C)CC2)cc1F [Example 123] |
| 6.30 to 7.00 | < 6.00 | 168 °C | C[C@@H]1CCCN1CCCOc1c(Cl)cc(C(=O)CN2CCN(c3ccccc3)CC2)cc1Cl [Example 102] |
| 7.00 to 10.00 | 7.00 to 10.00 | 183 to 188 °C | C[C@@H]1CCCN1CCCOc1ccc(C(=O)CN2CCN(C(=O)OCc3ccccc3)CC2)cc1 [Example 138, 4-(2-{4-[3-((R)-2-Methyl-pyrrolidin-1-yl)-propoxy]-phenyl}-2-oxo-ethyl)-piperazine-1-carboxylic acid benzyl ester] |
| 7.00 to 10.00 | 7.00 to 10.00 | 140 °C (dec.) | CC(C)C(=O)N1CCN(CC(=O)c2ccc(OCCCN3CCC[C@H]3C)c(Cl)c2)CC1 [Example 118, 1-[4-(2-{3-Chloro-4-[3-((R)-2-methyl-pyrrolidin-1-yl)-propoxy]-phenyl}-2-oxo-ethyl)-piperazin-1-yl]-2-methyl-propan-1-one] |
| 7.00 to 10.00 | 7.00 to 10.00 | 218 to 219 °C | CCOC(=O)N1CCN(CC(=O)c2ccc(OCCCN3CCC[C@H]3C)cc2)CC1 [Example 115, 4-(2-{4-[3-((R)-2-Methyl-pyrrolidin-1-yl)-propoxy]-phenyl}-2-oxo-ethyl)-piperazine-1-carboxylic acid ethyl ester] |
